This is an account of results in article PMC7997635 (Journal of medicinal chemistry, 2021).

In data set [1] the test system is P. falciparum 3D7. Kind of data set: SYBR Green parasite growth inhibition assay, 72 h. Conditions: Plasmodium falciparum, 3D7, 72 h, read-out: P. falciparum EC50 Pf3D7, 72 h SYBR Green assay, ABS parasites; mean ± std dev (n) or individual replicates. It counts as cell-based.
Data set [2] is described as follows: HepG2 in vitro cytotoxicity. The format is cell-based. The note with it: human, HepG2 cells.
A further data set relates to P. falciparum NF54-luc. Kind of data set: Bioluminescence relative rate of kill. The format is cell-based, Plasmodium falciparum. Conditions: 6 h exposure, 30× to […] EC50, compared with benchmarks.
Data set [3] concerns P. falciparum 3D7. Kind of data set: Two-color flow cytometry kill rate assay. The format is cell-based, Plasmodium falciparum. The note with it: 10× EC50, 24 or 48 h. (In flow cytometry, cells or beads pass a laser one at a time.)
Data set [4] deals with P. falciparum. Kind of data set: PRR drug washout kill rate assay. It counts as cell-based, Plasmodium falciparum. The note with it: 10× EC50, 24 or 48 h.
Data set [5] can be described thus: Kinetic solubility in pH 2.0 and pH 6.5 buffers. The format is physicochemical.
Data set [6] is described as follows: Solubility in NP-40/DMSO buffer of the heme biomineralization assay. The format is physicochemical.
For data set [7], the system named is conversion of hematin (Fe(III)PPIX) to β-hematin. It counts as biochemical. Conditions: pH 4.8 acetate, NP-40, 37 °C, 5 h; for IC50: read-out: IC50 for inhibition of βH formation.
Data set [8] has as its system Hz formation in NF54 parasites. Kind of data set: Cellular heme fractionation assay. The note with it: Plasmodium falciparum, NF54, 32 h, read-out: EC50 (heme), drug concentration giving 50% response of 'free' heme Fe. The format is cell-based.
The subject of data set [9] is P. falciparum 3D7. Kind of data set: 48 h 3H-hypoxanthine incorporation assay. The format is cell-based. Conditions: Plasmodium falciparum, 3D7, 48 h, read-out: EC50, 48 h hypoxanthine assay.
The test system of a further data set is PfNF54 parasites. Kind of data set: Parasite survival concentration response. The format is cell-based. The note with it: Plasmodium falciparum, read-out: EC50 (survival), parasite survival.
Data set [10] has as its system P. falciparum. Conditions: previously characterized with the standard PRR assay ref 34; cited from earlier work.
The subject of another data set is P. falciparum Dd2. Kind of data set: SYBR Green parasite growth inhibition assay, 72 h. The format is cell-based, Plasmodium falciparum.
The subject of data set [11] is P. berghei liver stage (Pb-Luc sporozoites in HepG2-A16-CD81EGFP cells). Kind of data set: P. berghei liver stage assay. The format is cell-based, Plasmodium berghei. Conditions: for EC50: read-out: Pb liver stage EC50, two independent replicates.
Data set [12] in a line: HepG2tox assay run with the liver stage assay. The format is cell-based, human. Conditions: human, HepG2 cells, HepG2 CC50 (life cycle profiling), two independent replicates.
A further data set deals with HepG2. Kind of data set: HepG2tox assay run with the liver stage assay. The format is cell-based, human. Conditions: read-out: HepG2 CC50 (life cycle profiling); two independent replicates.
For another data set, the system named is male stage V gametocytes. Kind of data set: Dual gamete formation assay. The format is cell-based. Conditions: Plasmodium falciparum, read-out: DGFA male gametocytes inhibition.
Setting [13] is: phosphate buffered saline pH 6.5, pH 6.5.

Values after ≈ are worked out from the molar mass of the structure shown. A value given as a limit tells only on which side of the number the result lay.

In the case of `Cc1ccccc1-n1nnnc1C(c1cncnc1)N(Cc1cccc(C(F)(F)F)c1)C1CC1` (stereo not drawn) [Compound 10, N-(Pyrimidin-5-yl(1-(o-tolyl)-1H-tetrazol-5-yl)methyl)-N-(3-(trifluoromethyl)benzyl)cyclopropanamine], the EC50 with P. falciparum 3D7 [1] turned out to be 0.32 µM; in data set [8], 1.04 µM. Moreover, the 50% cytotoxic concentration (CC50) (as a rule, the concentration at which the toxic effect on the cells reaches its halfway point) at 72 h in [2] was over 30 µM. Besides, in the data set with P. falciparum NF54-luc, the “rate of kill profile in BRRoK assay” value is recorded as “fast kill kinetics”. The “kill kinetics in two-color FACS assay” value in the data set on P. falciparum 3D7 [3] was “kill kinetics similar to CQ, though slower than ART”. Besides, the “kill kinetics in PRR washout assay” value in the data set on P. falciparum [4] was “kill kinetics similar to CQ, though slower than ART”. Besides, the solubility (kinetic) (usually solubility judged after dilution from a stock solution rather than from solid) was in the range of 1.5 to 2.9 µg/mL (≈ 3.22 to 6.23 µM) in data set [5] (pH 2.0 buffer, pH 2) and 1.5 to 2.9 µg/mL (≈ 3.22 to 6.23 µM) in data set [5] (setting [13]). Further, in [6], the solubility (in general, the dissolved amount per volume that the medium holds) is at least 2000 µM. The “inhibition of βH formation (in words)” value in data set [7] is given as “weaker inhibition”.

On to `CCc1nc(N)nc(N)c1-c1ccc(Cl)cc1` [PYR, pyrimethamine], for which the values for the EC50 (in the data set on P. falciparum 3D7 [9]; in data set [8]; in the data set with PfNF54 parasites) were 0.094 µM, over 0.1 µM and 0.033 µM, respectively.

Consider `Cc1cc(Nc2ccc(S(F)(F)(F)(F)F)cc2)n2nc(C(C)(F)F)nc2n1` [DSM265], for which the “rate of kill class of benchmark compound” value in the data set on P. falciparum [10] is recorded as “slow-kill”.

Regarding `C[C@@H]1CC[C@H]2[C@@H](C)C(=O)O[C@@H]3O[C@@]4(C)CC[C@@H]1[C@]32OO4` [ART, artemisinin], the “rate of kill class of benchmark compound” value in the data set with P. falciparum [10] is “fast-kill”.

As for `Cc1ccccc1N(C)C(=O)C(c1cncnc1)N(Cc1cccc(OC(F)(F)F)c1)C1CC1` (stereo not drawn) [Compound 27, 2-(Cyclopropyl(3-(trifluoromethoxy)benzyl)amino)-N-methyl-2-(pyrimidin-5-yl)-N-(o-tolyl)acetamide], the “Fold Diff in EC50, Dd2 relative to 3D7” value in the data set with P. falciparum Dd2 is 1.4 – 3.0 fold.

`Cc1ccccc1-n1nnnc1C(c1cccnc1)N(Cc1cccc(C(F)(F)F)c1)C1CC1` (stereo not drawn) [Compound 9, N-(Pyridin-3-yl(1-(o-tolyl)-1H-tetrazol-5-yl)methyl)-N-(3-(trifluoromethyl)benzyl) cyclopropanamine]: the kinetic solubility in [5] (pH 2.0 buffer, pH 2) was 12 to 23 µg/mL (≈ 25.8 to 49.5 µM); in data set [5] (setting [13]), 1.5 to 2.9 µg/mL (≈ 3.23 to 6.24 µM). In [6], the solubility was at least 2000 µM. In addition, the EC50 in [11] was 12 µM. Besides, the figures for the CC50 (in data set [12]; with HepG2) were 19 µM and over 17 µM, respectively. Further, the “inhibition of βH formation (in words)” value in [7] is recorded as “inhibited βH formation with the same potency as MFQ”.

Consider `O=C1C(O)=C([C@H]2CC[C@H](c3ccc(Cl)cc3)CC2)C(=O)c2ccccc21` [ATQ, atovaquone], for which the “rate of kill class of benchmark compound” value with P. falciparum [10] was “slow-kill”.

Take `COc1ccc2nc3cc(Cl)ccc3c(Nc3cc(CN4CCCC4)c(O)c(CN4CCCC4)c3)c2n1` [pyronaridine, reference compound]: the half-maximal inhibitory concentration (IC50) (in general, the concentration needed to halve the response being measured) in data set [7] is at most 100 µM.

`O=C(C(c1cccnc1)N(Cc1cccc(C(F)(F)F)c1)C1CC1)N1CCCCC1` (stereo not drawn) [Compound 34, 2-(Cyclopropyl(3-(trifluoromethyl)benzyl)amino)-1-(piperidin-1-yl)-2-(pyridin-3-yl)ethan-1-one] returned a solubility (kinetic) in [5] (setting [13]) of 25 to 50 µg/mL (≈ 59.9 to 120 µM).

Regarding `Cc1ccccc1N(C)C(=O)C(c1cccnc1)N(Cc1cccc(C(F)(F)F)c1)C1CC1` (stereo not drawn) [Compound 22, 2-(Cyclopropyl(3-(trifluoromethyl)benzyl)amino)-N-methyl-2-(pyridin-3-yl)-N-(o-tolyl)acetamide], in [5] (setting [13]), the kinetic solubility was in the range of 6.3 to 12.5 µg/mL (≈ 13.9 to 27.6 µM).

In the case of `CCN(CC)CCCC(C)Nc1ccnc2cc(Cl)ccc12` (stereo not drawn) [CQ, chloroquine], the EC50 in data set [8] was 0.058 µM; with PfNF54 parasites, 0.015 µM. Besides, in the data set on P. falciparum [10], the “rate of kill class of benchmark compound” value is recorded as “fast-kill”.

With `Cc1ccccc1N(C)C(=O)C(c1cccnc1)N(Cc1cccc(OC(F)(F)F)c1)C1CC1` (stereo not drawn) [Compound 26, 2-(Cyclopropyl(3-(trifluoromethoxy)benzyl)amino)-N-methyl-2-(pyridin-3-yl)-N-(o-tolyl)acetamide], the “Fold Diff in EC50, Dd2 relative to 3D7” value in the data set with P. falciparum Dd2 was 3–5 fold.

As for `O[C@@H](c1cc(C(F)(F)F)nc2c(C(F)(F)F)cccc12)[C@H]1CCCCN1` (racemic) [MFQ, mefloquine, reference compound], the IC50 in [7] was at most 100 µM.

On to `CCN(CC)Cc1cc(Nc2ccnc3cc(Cl)ccc23)ccc1O` [amodiaquine, reference compound], for which, in data set [7], the IC50 was at most 100 µM.

Consider `COc1ccc(C(F)(F)F)cc1CN(C)C(c1cccnc1)c1nnnn1-c1ccccc1C` (stereo not drawn) [Compound 6, N-(2-methoxy-5-(trifluoromethyl)benzyl)-N-methyl-1-(pyridin-3-yl)-1-(1-(o-tolyl)-1H-tetrazol-5-yl)methenamine], for which the EC50 in the data set with P. falciparum 3D7 [1] was about 1 µM.

In turn, `Cc1ccccc1N(C)C(=O)C(c1cccnc1)N(Cc1cc(C(F)(F)F)ccc1F)C1CC1` (stereo not drawn) [Compound 32, 2-(Cyclopropyl(2-fluoro-5-(trifluoromethyl)benzyl)amino)-N-methyl-2-(pyridin-3-yl)-N-(o-tolyl)acetamide] yielded a kinetic solubility in data set [5] (setting [13]) of 1.5 to 2.9 µg/mL (≈ 3.18 to 6.15 µM). The “Pb liver stage EC50 relative to P. falciparum blood stage EC50” value in data set [11] (fold higher) was in the range of 20 to 30 fold. The EC50 in data set [11] was 16 µM. Besides, in data set [12], the CC50 was 24 µM. Besides, the inhibition (as a rule, the share of the control response that was lost under treatment) at 25 µM in the data set with male stage V gametocytes is about 60%.

As for `CCCN(C(c1cncnc1)c1nnnn1-c1ccccc1C)C1(c2cccc(C(F)(F)F)c2)CC1` (stereo not drawn) [Compound 20, N-Propyl-N-(pyrimidin-5-yl(1-(o-tolyl)-1H-tetrazol-5-yl)methyl)-1-(3-(trifluoromethyl)phenyl)cyclopropan-1-amine], the selectivity ratio at 72 h in data set [2] lay in the range of 40 to 50.

Regarding `COc1ccc(Br)cc1CN(C)C(c1ccccc1)c1nnnn1-c1ccccc1C` (racemic) [Compound 3, N-(5-bromo-2-methoxybenzyl)-N-methyl-1-phenyl-1-(1-(o-tolyl)-1H-tetrazol-5-yl)methenamine], in the data set on P. falciparum NF54-luc, the “rate of kill profile in BRRoK assay” value is on record as “fast kill mechanism”. The same compound returned a solubility in data set [6] of at least 2000 µM. For the same compound, the “inhibition of βH formation (in words)” value in data set [7] is “nearly inactive”.

Take `CCC(C(=O)Nc1cccc(Cl)c1)N1C(=O)C(C)N=C(c2ccccc2)c2ccccc21` (stereo not drawn) [Compound 1, N-(3-Chlorophenyl)-2-(3-methyl-2-oxo-5-phenyl-2,3-dihydro-1H-benzo[e][1,4]diazepin-1-yl)butanamide]: the “rate of kill profile in BRRoK assay” value in the data set on P. falciparum NF54-luc was “slow kill kinetics”.

Consider `COc1ccc(C(F)(F)F)cc1CN(C1CC1)C(c1cccnc1)c1nnnn1-c1ccccc1C` (stereo not drawn) [Compound 7, N-(2-methoxy-5-(trifluoromethyl)benzyl)-N-(pyridin-3-yl(1-(o-tolyl)-1H-tetrazol-5-yl)methyl)cyclopropanamine], for which the solubility (kinetic) in data set [5] (pH 2.0 buffer, pH 2) is 12.5 to 25 µg/mL (≈ 25.3 to 50.6 µM); in data set [5] (setting [13]), 1.6 to 3.1 µg/mL (≈ 3.24 to 6.27 µM).

As for `CCCN(C(c1cccnc1)c1nnnn1-c1ccccc1C)C1(c2cccc(C(F)(F)F)c2)CC1` (stereo not drawn) [Compound 21, N-Propyl-N-(pyridin-3-yl(1-(o-tolyl)-1H-tetrazol-5-yl)methyl)-1-(3-(trifluoromethyl)phenyl)cyclopropan-1-amine], in the data set with P. falciparum 3D7 [1], the EC50 was about 0.3 µM. Besides, in data set [2], the selectivity ratio at 72 h lay in the range of 40 to 50.

For `Cc1ccccc1N(C)C(=O)C(c1cncnc1)N(Cc1cccc(C(F)(F)F)c1)C1CC1` (stereo not drawn) [Compound 23, 2-(Cyclopropyl(3-(trifluoromethyl)benzyl)amino)-N-methyl-2-(pyrimidin-5-yl)-N-(o-tolyl)acetamide], the “rate of kill profile in BRRoK assay” value with P. falciparum NF54-luc is given as “fast kill kinetics”. This compound returned a solubility (kinetic) in data set [5] (pH 2.0 buffer, pH 2) of 11 to 23 µg/mL (≈ 24.2 to 50.6 µM).

Regarding `CC(=O)c1ccc(NC(=O)c2ccc(NC(=O)C3COc4ccccc4O3)cc2)cc1` (stereo not drawn) [Compound 2, N-(4-((4-Acetylphenyl)carbamoyl)phenyl)-2,3-dihydrobenzo[b][1,4]dioxine-2-carboxamide], the “rate of kill profile in BRRoK assay” value in the data set on P. falciparum NF54-luc is “slow kill kinetics”.
